Measurements published in PMC8414988 (Pediatric blood & cancer, 2021).

What was measured:
[1] = Plasma pharmacokinetics, non-compartmental analysis; format: in vivo, human; conditions: for AUC(0-t) / Cmax / half-life: human, plasma, po
[2] = Exposure-toxicity associations; format: in vivo, human; conditions: course 1
[3] = cited from earlier work
[4] = daily, 21 days followed by 7-day rest, adults; cited from earlier work

**Q.** With `CC(=O)c1c(C)c2cnc(Nc3ccc(N4CCNCC4)cn3)nc2n(C2CCCC2)c1=O` [palbociclib] as the compound, how does the “Cmax (mean ± SD)” value ([1]; 50 mg/m^2 oral, Day 1 (single dose), N=7) read?
**A.** 69.3 ± 43.7 ng/mL

**Q.** And the “AUC0-Tlast (mean ± SD)” value ([1]; 75 mg/m^2 oral, Day 21 (repeated doses), N=17)?
**A.** 2219 ± 1086 ng·h/mL

**Q.** And the AUC(0-t) ([1]; 50 mg/m2, AUC0-Tlast (median (range)), 50 mg/m^2 oral, Day 1 (single dose), N=7)?
**A.** 1160 ng·h/mL

**Q.** What about the AUC(0-t) ([1]; 50 mg/m2, AUC0-Tlast (median (range)), 50 mg/m^2 oral, Day 21 (repeated doses), N=6) of the same compound?
**A.** 1230 ng·h/mL

**Q.** What about the Cmax ([1]; 50 mg/m2, Cmax (median (range)), 50 mg/m^2 oral, Day 1 (single dose), N=7) of the same compound?
**A.** 54.9 ng/mL

**Q.** And the Cmax ([1]; 50 mg/m2, Cmax (median (range)), 50 mg/m^2 oral, Day 21 (repeated doses), N=6)?
**A.** 77.2 ng/mL

**Q.** And the half-life ([1]; 50 mg/m2, Half-life (median (range)), 50 mg/m^2 oral, Day 1 (single dose), N=7)?
**A.** 13 h

**Q.** What about the half-life ([1]; 50 mg/m2, Half-life (median (range)), 50 mg/m^2 oral, Day 21 (repeated doses), N=6) of the same compound?
**A.** 17.4 h

**Q.** And the AUC(0-t) ([1]; 75 mg/m2, AUC0-Tlast (median (range)), 75 mg/m^2 oral, Day 1 (single dose), N=21)?
**A.** 1830 ng·h/mL

**Q.** What about the AUC(0-t) ([1]; 75 mg/m2, AUC0-Tlast (median (range)), 75 mg/m^2 oral, Day 21 (repeated doses), N=17) of the same compound?
**A.** 2270 ng·h/mL

**Q.** And the Cmax ([1]; 75 mg/m2, Cmax (median (range)), 75 mg/m^2 oral, Day 1 (single dose), N=21)?
**A.** 94 ng/mL

**Q.** What about the half-life ([1]; 75 mg/m2, Half-life (median (range)), 75 mg/m^2 oral, Day 1 (single dose), N=21) of the same compound?
**A.** 13.3 h

**Q.** What about the half-life ([1]; 75 mg/m2, Half-life (median (range)), 75 mg/m^2 oral, Day 21 (repeated doses), N=17) of the same compound?
**A.** 14.4 h

**Q.** What about the AUC(0-t) ([1]; 95 mg/m2, AUC0-Tlast (median (range)), 95 mg/m^2 oral, Day 1 (single dose), N=6) of the same compound?
**A.** 2410 ng·h/mL

**Q.** What about the AUC(0-t) ([1]; 95 mg/m2, AUC0-Tlast (median (range)), 95 mg/m^2 oral, Day 21 (repeated doses), N=2) of the same compound?
**A.** 2190 ng·h/mL

**Q.** What about the half-life ([1]; 95 mg/m2, Half-life (median (range)), 95 mg/m^2 oral, Day 1 (single dose), N=6) of the same compound?
**A.** 14.6 h

**Q.** What about the half-life ([1]; 95 mg/m2, Half-life (median (range)), 95 mg/m^2 oral, Day 21 (repeated doses), N=2) of the same compound?
**A.** 11.3 h

**Q.** What about the “dose dependence of mean Cmax and AUC0-Tlast” value ([1]; within 50 and 95 mg/m^2, single and repeated doses) of the same compound?
**A.** increased in proportional manner

**Q.** And the “association of pharmacokinetic variables with thrombocytopenia or lymphopenia” value [2]?
**A.** No association was found

**Q.** And the permeability [3]?
**A.** high permeability

**Q.** And the “adult MTD” value [4]?
**A.** 125 mg
